Assay results: patent US10988459B2 (priority 2015, dated 2021)

target: human RIP1 kinase domain (2-375) (Homo sapiens (Human), UniProt Q13546); assay: biochemical; type: biochemical; settings: Table 1; apparent Ki (Morrison tight-binding fit); 50 nM RIP1 kinase domain, 50 uM ATP, 2 hours incubation; read-out: RIP1 Ki
In short: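 Ki^app comes from Morrison tight-binding fits of fractional activity versus compound concentration. Activity was read as ADP production, via tracer displacement lowering fluorescence polarization (633 nm laser). Conditions: 2 h, 50 nM insect-cell-expressed enzyme, 50 uM ATP, 30 mM MgCl2, 1 mM DTT, 0.5% DMSO, pH 7.5 Hepes.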

Sequence of human RIP1 kinase domain (2-375) (Q13546 2-375): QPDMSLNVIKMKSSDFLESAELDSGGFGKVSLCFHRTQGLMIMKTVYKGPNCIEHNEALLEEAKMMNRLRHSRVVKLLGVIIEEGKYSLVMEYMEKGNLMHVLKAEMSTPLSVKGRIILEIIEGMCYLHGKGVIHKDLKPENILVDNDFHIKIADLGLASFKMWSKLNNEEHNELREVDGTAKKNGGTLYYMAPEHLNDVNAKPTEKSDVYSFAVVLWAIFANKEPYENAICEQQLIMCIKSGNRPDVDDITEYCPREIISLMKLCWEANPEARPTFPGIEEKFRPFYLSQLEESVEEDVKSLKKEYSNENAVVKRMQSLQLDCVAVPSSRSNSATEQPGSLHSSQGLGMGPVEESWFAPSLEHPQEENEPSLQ

`O=C(N[C@H]1COc2[nH]ncc2NC1=O)c1ccn(Cc2ccc(F)c(F)c2)n1` [Example 16, (S)-1-(3,4-difluorobenzyl)-N-(5-oxo-4,5,6,7-tetrahydro-1H-pyrazolo[3,4-b][1,4]oxazepin-6-yl)-1H-pyrazole-3-carboxamide] showed a Ki of over 10000 nM.

same assay, conditions: Table 5; apparent Ki (Morrison tight-binding fit); 50 nM RIP1 kinase domain, 50 uM ATP, 2 hours incubation; read-out: Ki

Compared with `COC1CN(CCc2cc3n(n2)CC[C@H](NC(=O)c2ncn(Cc4ccccc4)n2)C(=O)N3C)C1` [Example 757], `CCC[C@@H]1CCCc2nc(C(=O)N[C@H]3COc4cc(F)cc(F)c4NC3=O)nn21` (single isomer, unassigned) [Example 716] is 56-fold lower in Ki: 168 nM for the first, 3 nM for the second.

same assay, conditions: human RIP1 kinase domain (2-375), 50 uM ATP, 2 hours incubation, Transcreener ADP assay; read-out: RIP1 Ki

Compared with `CN1C(=O)C(NC(=O)c2ncn(Cc3ccccc3)n2)CCn2nc(C(F)(F)F)cc21` (stereo not shown) [Example 85, 1-benzyl-N-(4-methyl-5-oxo-2-(trifluoromethyl)-5,6,7,8-tetrahydro-4H-pyrazolo[1,5-a][1,3]diazepin-6-yl)-1H-1,2,4-triazole-3-carboxamide], `CN1C(=O)[C@@H](NC(=O)c2nc3n(n2)[C@@H](c2ccccc2)CC3)CCn2nccc21` (single isomer, unassigned) [Example 125] is 12-fold higher in Ki: 76.8 nM for the first, 891 nM for the second. The first binds more tightly here.

`CN1C(=O)C(NC(=O)c2nnc(Cc3ccccc3)[nH]2)CCn2nc3ccccc3c21` (stereo not shown) [Example 108, 5-benzyl-N-(1-methyl-2-oxo-2,3,4,5-tetrahydro-1-[1,3]diazepino[1,2-b]indazol-3-yl)-4H-1,2,4-triazole-3-carboxamide] and `CN1C(=O)C(NC(=O)c2nnc(Cc3ccccc3)[nH]2)CCn2c1nc1ccccc12` (stereo not shown) [Example 109, 5-benzyl-N-(1-methyl-2-oxo-2,3,4,5-tetrahydro-1H-benzo[4,5]imidazo[1,2-a][1,3]diazepin-3-yl)-4H-1,2,4-triazole-3-carboxamide] are within 1.5-fold of each other in Ki: 133 nM for the first, 124 nM for the second.

With `CC(c1ccccc1)c1nnc(C(=O)N[C@H]2CCn3nccc3N(C)C2=O)[nH]1` (stereo partly drawn) [Example 100, N—((S)-4-methyl-5-oxo-5,6,7,8-tetrahydro-4H-pyrazolo[1,5-a][1,3]diazepin-6-yl)-5-(1-phenylethyl)-4H-1,2,4-triazole-3-carboxamide] the Ki was 189 nM.

same assay, conditions: human RIP1 kinase domain (2-375), Transcreener ADP assay, 50 uM ATP, 2 hours incubation; read-out: RIP1 Ki

Compared with `Cc1cc2n(n1)CC[C@H](NC(=O)c1ncn(Cc3c(F)cccc3F)n1)C(=O)N2C` [Example 301, (S)-1-(2,6-difluorobenzyl)-N-(2,4-dimethyl-5-oxo-5,6,7,8-tetrahydro-4H-pyrazolo[1,5-a][1,3]diazepin-6-yl)-1H-1,2,4-triazole-3-carboxamide], `CN1C(=O)[C@@H](NC(=O)c2ncn(Cc3ccccc3)n2)CCn2cncc21` [Example 297, (S)-1-benzyl-N-(1-methyl-2-oxo-2,3,4,5-tetrahydro-1H-imidazo[1,5-a][1,3]diazepin-3-yl)-1H-1,2,4-triazole-3-carboxamide] is 2-fold higher in Ki: 10.4 nM for the first, 20.8 nM for the second. The first binds more tightly here.

Work on `Cc1ncn2c1N(C)C(=O)C(NC(=O)c1n[nH]c(Cc3ccccc3)n1)CC2` (stereo not shown) [Example 226, 5-benzyl-N-(1,9-dimethyl-2-oxo-2,3,4,5-tetrahydro-1H-imidazo[1,5-a][1,3]diazepin-3-yl)-1H-1,2,4-triazole-3-carboxamide] yielded a Ki of 183 nM.

same assay, conditions: tight-binding apparent inhibition constant; human RIP1 kinase domain (2-375) 50 nM, 50 uM ATP, 2 hours; read-out: Ki

Going from `CN1C(=O)[C@@H](NC(=O)c2ncn(Cc3ccccc3F)n2)CCn2nc(C(F)(F)F)cc21` [Example 526] to `CC(O)c1cc2n(n1)CC[C@H](NC(=O)c1ncn(Cc3ccccc3)n1)C(=O)N2C` (single isomer, unassigned) [Example 368], the Ki rises from 20 nM to 154 nM (7.7-fold).

`CC[C@@H]1CCCc2nc(C(=O)N[C@H]3COc4ccccc4N(C)C3=O)nn21` (racemic) [Example 402, (R)-5-ethyl-N—((S)-5-methyl-4-oxo-2,3,4,5-tetrahydrobenzo[b][1,4]oxazepin-3-yl)-5,6,7,8-tetrahydro-[1,2,4]triazolo[1,5-a]pyridine-2-carboxamide] and `CN1C(=O)[C@@H](NC(=O)c2nc3n(n2)CCCC3c2ccccc2)COc2ccccc21` (stereo partly drawn) [Example 553, 8-phenyl-N-[(3S)-5-methyl-4-oxo-2,3-dihydro-1,5-benzoxazepin-3-yl]-5,6,7,8-tetrahydro-[1,2,4]triazolo[1,5-a]pyridine-2-carboxamide] are the same in Ki: 8.7 nM for the first, 8.7 nM for the second.

`CN1C(=O)[C@@H](NC(=O)c2nc3n(n2)[C@H](c2ccccc2F)CC3)CCn2nccc21` [Example 669, (5S)-5-(2-fluorophenyl)-N-[(6S)-4-methyl-5-oxo-7,8-dihydro-6H-pyrazolo[1,5-a][1,3]diazepin-6-yl]-6,7-dihydro-5H-pyrrolo[1,2-b][1,2,4]triazole-2-carboxamide] and `CN1C(=O)[C@@H](NC(=O)c2nc3n(n2)[C@H](c2c(F)cccc2F)CCC3)CCn2nccc21` (racemic) [Example 400, (S)-5-(2,6-difluorophenyl)-N—((S)-4-methyl-5-oxo-5,6,7,8-tetrahydro-4H-pyrazolo[1,5-a][1,3]diazepin-6-yl)-5,6,7,8-tetrahydro-[1,2,4]triazolo[1,5-a]pyridine-2-carboxamide] are within 1.5-fold of each other in Ki: 610 nM for the first, 834 nM for the second.

First: Cc1ncc2n1CC[C@@H](NC(=O)c1ncn(Cc3cc(F)ccc3F)n1)C(=O)N2C [Example 577, 1-[(2,5-difluorophenyl)methyl]-N-(3R)-1,7-dimethyl-2-oxo-4,5-dihydro-3H-imidazo[1,5-a][1,3]diazepin-3-yl-1,2,4-triazole-3-carboxamide]
Second: CN1C(=O)[C@@H](NC(=O)c2ncn(Cc3ccc(F)c(F)c3)n2)CCn2nccc21 (racemic) [Example 341, 1-[(3,4-difluorophenyl)methyl]-N-[rac-(6S)-4-methyl-5-oxo-7,8-dihydro-6H-pyrazolo[1,5-a][1,3]diazepin-6-yl]-1,2,4-triazole-3-carboxamide]
The Ki of the first is 4.7-fold higher: 80 nM for the first, 17 nM for the second.

Compared with `Cc1cc2n(n1)CC[C@H](NC(=O)c1ncc3cnn(C4CCOCC4)c3n1)C(=O)N2C` [Example 559, N-[(6S)-2,4-dimethyl-5-oxo-7,8-dihydro-6H-pyrazolo[1,5-a][1,3]diazepin-6-yl]-1-tetrahydropyran-4-yl-pyrazolo[3,4-d]pyrimidine-6-carboxamide], `CC[C@@]1(C)OCc2cnc(C(=O)N[C@H]3CCn4nc(C)cc4N(C)C3=O)nc21` (racemic) [Example 687, rac-(7R)-7-ethyl-7-methyl-N-[rac-(6S)-2,4-dimethyl-5-oxo-7,8-dihydro-6H-pyrazolo[1,5-a][1,3]diazepin-6-yl]-5H-furo[3,4-d]pyrimidine-2-carboxamide] is 2.3-fold lower in Ki: 570 nM for the first, 251 nM for the second. The second binds more tightly here.

Going from `O=C(N[C@H]1COc2cc(F)cc(F)c2NC1=O)c1nc2n(n1)CCC2c1ccccc1` (stereo in doubt) [Example 626, (7R)-7-phenyl-N-[(3S)-6,8-difluoro-4-oxo-3,5-dihydro-2H-1,5-benzoxazepin-3-yl]-6,7-dihydro-5H-pyrrolo[1,2-b][1,2,4]triazole-2-carboxamide] to `O=C(N[C@H]1COc2cc(F)cc(F)c2NC1=O)c1nc2cccc(C(F)(F)F)n2n1` [Example 417, (S)—N-(6,8-difluoro-4-oxo-2,3,4,5-tetrahydrobenzo[b][1,4]oxazepin-3-yl)-5-(trifluoromethyl)-[1,2,4]triazolo[1,5-a]pyridine-2-carboxamide], the Ki rises from 14 nM to 36.5 nM (2.6-fold). The first binds more tightly here.

First: CN1C(=O)[C@@H](NC(=O)c2ncc3c(n2)C2(CCOCC2)OC3)COc2ccccc21 [Example 510]
Second: O=C(N[C@H]1CCc2cc(F)cc(F)c2NC1=O)c1nc2cccc(C(F)(F)F)n2n1 [Example 418, (S)—N-(7,9-difluoro-2-oxo-2,3,4,5-tetrahydro-1H-benzo[b]azepin-3-yl)-5-(trifluoromethyl)-[1,2,4]triazolo[1,5-a]pyridine-2-carboxamide]
The Ki of the first is 9.6-fold higher: 330 nM for the first, 34.3 nM for the second.
